Laboratory results published in patent US20250009627A1, “THERAPEUTIC AND NON-THERAPEUTIC USES OF A PERSONAL CLEANSING COMPOSITION AND METHODS OF TREATMENT” (The Procter & Gamble Company, priority 2023, published 2025).

Legend:
[1] = system: Staphylococcus aureus ATCC6538; experiment: In vitro Minimum Inhibitory Concentration (MIC) testing; assay type: cell-based; details: for MIC: read-out: Minimum Inhibition Concentration MIC
Procedure: (§1) The in vitro Minimum Inhibitory Concentration (MIC) Assay is a technique for determining the lowest concentration of a particular compound needed to prevent growth of microorganism. Different microorganisms were used to evaluate bacterial inhibition benefits for sulfate surfactants (Table 1) [table] Microorganisms are cultured and maintained in different culture medium. Each respective microorganism stock solution is diluted to 10^5 to 10^6 CFU/mL in a respective growth medium. 180 μl broth with the respective target microorganism is allocated into 96 well plates. Sodium oleyl sulfate prepared from two different synthesis batches (Ex. 1A and Ex. 1B), sodium octyl sulfate, sodium decyl sulfate, sodium lauryl sulfate were mixed respectively with in Deionized (DI) water. Octadecyl sulfate sodium was mixed in Dimethyl sulfoxide (DMSO). Two folds serial dilution are applied to each respective active by mixing 100 μl active stock solution (from 1 wt. %) plus 100 μl sterilized DI water or DMSO in 96 well plates (Nunc™ MicroWell™ 96-Well, CAT. No. 167008). For each assay, 0.001-1 wt. % treatment solutions are prepared for each individual active. Micropipettes are used to transfer 20 μl of actives at different concentration into each well with 180 μl broth with the respective target microorganisms. The 96 well plates with test microorganisms and test actives are incubated at 37° C. • a) E. coli are incubated for overnight 16 hours to 24 hour. • b) Corynebacterium minutissimum is incubated for two days. • c) Cutibacterium acnes is incubated for two days under anaerobic conditions. After incubation, microorganism growth is determined in presence of test actives by visual inspection or spectrophotometer by OD600 (absorbance at 600 nm using Tecan M200 Infinite Pro Microplate Reader) reading in comparison with positive control (broth with individual microorganism) and negative control (Broth only). MIC values are presented as parts per million (ppm) for different actives.

Cutibacterium acne SK137 = experiment: as above; assay type: cell-based, Cutibacterium acnes; details: for MIC: Cutibacterium, SK137, Cutibacterium acne SK137, anaerobic, read-out: Minimum Inhibition Concentration MIC; for bacterial inhibition of Cutibacterium acne (in words): two strains (SK137, 2044 NIA)
Procedure: as §1

[2] = system: Corynebacterium minutissimum ATCC 23348; experiment: as above; assay type: cell-based; details: for MIC: ATCC23348, read-out: Minimum Inhibition Concentration MIC
Procedure: as §1, with “plates. For instance, Corynebacterium minutissimum ATCC 23348 is cultured on tryptic soy agar (TSA) (Oxoid CM0131) over 24 hours. The single colonies are then transferred into 20 mL Tryptone Soy Broth (Oxoid CM0129B—TSB) and cultured overnight at 200 rpm/min, 37° C. Bacterial cell in broth will be diluted to 10^5 to 10^6 CFU/mL in TSB. 180 μL of this bacterium-MHB mix is added to a 96 well flat-bottomed plate (Nunc™ MicroWell™ 96-Well, CAT. No. 167008).” for “plates.”

[3] = system: Cutibacterium acne 2044 NIA (skin isolate); experiment: as above; assay type: cell-based, Cutibacterium acnes; details: for MIC: read-out: Minimum Inhibition Concentration MIC
Procedure: The in vitro Minimum Inhibitory Concentration (MIC) Assay is a technique for determining the lowest concentration of a particular compound needed to prevent growth of microorganism. Different microorganisms were used to evaluate bacterial inhibition benefits for sulfate surfactants (Table 1)
Microorganisms are cultured and maintained in different culture medium. Each respective microorganism stock solution is diluted to 10^5 to 10^6 CFU/mL in a respective growth medium. 180 μl broth with the respective target microorganism is allocated into 96 well plates.
Sodium oleyl sulfate prepared from two different synthesis batches (Ex. 1A and Ex. 1B), sodium octyl sulfate, sodium decyl sulfate, sodium lauryl sulfate were mixed respectively with in Deionized (DI) water. Octadecyl sulfate sodium was mixed in Dimethyl sulfoxide (DMSO).
Two folds serial dilution are applied to each respective active by mixing 100 μl active stock solution (from 1 wt. %) plus 100 μl sterilized DI water or DMSO in 96 well plates (Nunc™ MicroWell™ 96-Well, CAT. No. 167008). For each assay, 0.001-1 wt. % treatment solutions are prepared for each individual active.
Micropipettes are used to transfer 20 μl of actives at different concentration into each well with 180 μl broth with the respective target microorganisms.
The 96 well plates with test microorganisms and test actives are incubated at 37° C. • a) E. coli are incubated for overnight 16 hours to 24 hour. • b) Corynebacterium minutissimum is incubated for two days. • c) Cutibacterium acnes is incubated for two days under anaerobic conditions.
After incubation, microorganism growth is determined in presence of test actives by visual inspection or spectrophotometer by OD600 (absorbance at 600 nm using Tecan M200 Infinite Pro Microplate Reader) reading in comparison with positive control (broth with individual microorganism) and negative control (Broth only). MIC values are presented as parts per million (ppm) for different actives.
C. acne SK137 and C. acne 2044NIA (P&G skin isolate) are from Type IA-2 Clade by whole genome sequencing, which is reported to be associated with skin acne conditions.

E. coli ATCC25922 = experiment: Kill Rate Test in liquid (suspension time-kill testing); assay type: cell-based, Escherichia coli
From the text: The suspension time-kill test is a method to directly inoculate a liquid test substance with a high concentration of test microorganisms and then determine the percentage of killed over time, normally represented as log CFU reduction. The objective is to measure the biocidal potential of a liquid antimicrobial active or formulation.
E. coli ATCC25922 is streaked on Tryptic Soy Agar (TSA) Plates and cultured overnight. Pick up one colony of E. coli ATCC25922 and subculture bacterial cell in Tryptic Soy Broth (TSB) @ 200 rpm/min, 37° C. for 12-16 hours. After culturing, 1 mL bacterial cells in broth are pipetted into 2 mL tubes. Samples are centrifuged for 2 mins at 13000 rpm/min. Cell supernatant are discarded, and bacterial cells are resuspended in 1 mL Saline @ 10^8 to 10^9 CFU/mL. 1 mL liquid antimicrobial active to be tested under different concentrations is prepared: 20 mM acetate buffers are used to maintain the test solutions at a pH between 4.0 and 5.7. 10 mM phosphate buffer is used to maintain the test solution at a pH around 7.2. 20 mM Tris-HCl buffers are used to maintain the test solutions at a pH between 8.0 and 9.0. 1 mL saline (NaCl 0.9 wt. %) is used to as negative control in the study. 50 μl of 10^8 to 10^9 CFU/mL bacterial cells are added into each treatment and saline control. Samples were thoroughly mixed by vertexing 5 seconds. After incubating 30 minutes, 50 μl liquid from each treatment sample and saline control are pipetted out into for Total Viable Count Vial (NEOGEN). All measurements are done in duplicates. The Detection Time (DT) for Total Viable Count Vial is measured by Soleris® Next Generation (NEOGEN) system. DT values are averaged for each treatment and control for further calculation. DT time for each sample is converted to Log (viable cell number) by using algorithm generated for E. coli ATCC25922:
Biocidal potential of different actives at different concentrations and at different pHs in a liquid solution is measured by: […]

[4] = system: Escherichia coli ATCC25922; experiment: In vitro Minimum Inhibitory Concentration (MIC) testing; assay type: cell-based; details: for MIC: Escherichia coli ATCC25922, pH of the assay 7.2, read-out: Minimum Inhibition Concentration MIC
Procedure: as §1

[5] = From the text: The term “Biodegradable Test” as used herein means the test as described in the Test Method Section herein in which the test material is suspended in a phosphate buffered media containing an activated sludge inoculum and the formation of carbon dioxide measured via a closed-circuit respirometer. The test material is the sole carbon and energy source and under aerobic conditions microorganisms metabolize organic substances producing CO2 as the ultimate product. The biodegradability of the salt of the alkenyl sulfate ester, preferably sodium oleyl sulfate can be tested according to the following method. The Biodegradability Test Method is based on the Organization for Economic Co-operation and Development (OECD) 301B CO2 evolution biodegradation test method that screens chemicals for ready biodegradability in an aerobic aqueous medium. In this test, the test substance is suspended in a phosphate buffered nutrient salts media containing an activated sludge inoculum and the formation of carbon dioxide is measured via a closed-circuit respirometer. […] The test system is dosed with a known quantity of carbon and biodegradation is calculated as the percent of theoretical CO2 formation. […] Ready biodegradability is a regulator definition that is used to classify materials that meet the pass criteria as described in the OECD 301B guideline. […]
[6] = Corynebacterium minutissimum ATCC 23348

SMILES	MIC ([1]; Staphylococcus aureus ATCC6538)	MIC [4]	MIC (Cutibacterium acne SK137)	MIC [2, 6]	MIC [3]	inhibition of S. aureus (in words) [1]	also measured
CCCCCCCC/C=C\CCCCCCCCOS(=O)(=O)[O-].[Na+] [Ex. 1B, sodium oleyl sulfate]	–	–	–	–	–	–	Minimum Inhibition Concentration MIC ([1]; Staphylococcus aureus ATCC6538): 3.9 ppm; Minimum Inhibition Concentration MIC (Cutibacterium acne SK137; Cutibacterium acne SK137, anaerobic, sulfate): 7.8 ppm; Minimum Inhibition Concentration MIC [2, 6]: 3.9 ppm; Minimum Inhibition Concentration MIC [3]: 7.8 ppm; bactericidal activity against E. coli ATCC25922 (log CFU reduction) (E. coli ATCC25922; 12.5 ppm, test pH 4, 30 minutes): 4.3; bactericidal activity against E. coli ATCC25922 (log CFU reduction) (E. coli ATCC25922; 12.5 ppm, test pH 5.1, 30 minutes): 0; bactericidal activity against E. coli ATCC25922 (log CFU reduction) (E. coli ATCC25922; 50 ppm, test pH 4, 30 minutes): 6.6; bactericidal activity against E. coli ATCC25922 (log CFU reduction) (E. coli ATCC25922; 50 ppm, test pH 5.1, 30 minutes): <0.3; bactericidal activity against E. coli ATCC25922 (log CFU reduction) (E. coli ATCC25922; 200 ppm, test pH 4, 30 minutes): 6.6; bactericidal activity against E. coli ATCC25922 (log CFU reduction) (E. coli ATCC25922; 200 ppm, test pH 5.1, 30 minutes): <0.3
CCCCCCCC/C=C\CCCCCCCCOS(=O)(=O)[O-].[Na+] [Ex. 1A, sodium oleyl sulfate]	3.9 µg/mL	> 1000 µg/mL	3.9 µg/mL	3.9 µg/mL	7.8 µg/mL	–	–
CCCCCCCC/C=C\CCCCCCCCOS(=O)(=O)[O-].[Na+] [sodium oleyl sulfate]	–	–	–	–	–	–	effect against gram-negative E. coli (in words) ([4]; pH of the assay of 7.2): ineffective; bacterial inhibition of Cutibacterium acne (in words) (Cutibacterium acne SK137): strong bacterial inhibition effects; bacterial inhibition of Corynebacterium minutissimum (in words) [2]: strong bacterial inhibition effects; ready biodegradability [5]: meeting both requirements for ready biodegradability; bactericidal activity against E. coli in solution (in words) (E. coli ATCC25922; pH up to or equal to 4): some bactericidal activity
CCCCCCCCOS(=O)(=O)[O-].[Na+] [sodium octyl sulfate]	> 1000 µg/mL	> 1000 µg/mL	> 500 µg/mL	> 500 µg/mL	> 500 µg/mL	No inhibition	–
CCCCCCCCCCCCCCCCCCOS(=O)(=O)[O-].[Na+] [octadecyl sulfate sodium salt]	> 500 µg/mL	> 1000 µg/mL	> 500 µg/mL	> 500 µg/mL	> 500 µg/mL	ineffective	bacterial inhibition of Cutibacterium acne (in words) (Cutibacterium acne SK137): no effect

Second part, led by results:

MIC ([1]; Staphylococcus aureus ATCC6538)	MIC [4]	MIC (Cutibacterium acne SK137)	MIC [2, 6]	MIC [3]	SMILES	inhibition of S. aureus (in words) [1]	also measured
125 µg/mL	> 1000 µg/mL	31.2 µg/mL	125 µg/mL	62.5 µg/mL	CCCCCCCCCCCCOS(=O)(=O)[O-].[Na+] [sodium lauryl sulfate]	less potent than sodium oleyl sulfate	–
> 1000 µg/mL	> 1000 µg/mL	> 500 µg/mL	> 500 µg/mL	> 500 µg/mL	CCCCCCCCCCOS(=O)(=O)[O-].[Na+] [sodium decyl sulfate]	No inhibition	–
